In patent publication US5284829A, “Synthetic tetrapeptides for the prevention of schistosome parasite infection” (priority 1991, dated 1994):
Where a SMILES comes first, the peptide text is derived from it. [ ]: non-standard residue; d: D form. The star is where a group is joined. pNA = O=[N+]([O-])c1ccc(N*)cc1; AMC = Cc1cc(=O)oc2cc(N*)ccc12; MeOSuc = COC(=O)CCC(=O)*; Nle = CCCC[C@H](N)C(=O)O; SBn = c1ccc(CS*)cc1; CH2Cl = ClC*

Assays:
cercarial protease [1] = molecular target: T1, cercarial protease (Schistosoma mansoni, UniProt P12546); assay: biochemical
T1 construct: Serine protease was isolated from the acetabular glands of cercariae as described previously in McKerrow et al., 1985; from tissue; host or cells: acetabular glands of cercariae
Protocol: (§1) The chloromethyl ketone-derivatized peptide inhibitors were designed by us based on our computer model, and synthesized for us by Enzyme System Products (Dublin, Calif.). Stock solutions of inhibitors (25 mM) were prepared in dimethyl sulfoxide (DMSO). The rate of irreversible inactivation of the protease was followed by withdrawing a 25 μl sample at 4 time intervals after mixing 125 μl of enzyme with 5 μl of inhibitor. Kitz and Wilson's methods of analysis were used for calculation of Ki, k3, and k3 /Ki (Kitz R. & Wilson, I. B. 1962. J. Biol. Chem. 237, 3245) using MeO-Suc-Ala-Ala-Pro-Phe-Sbzl (Sbzl, benzyl thioester) as substrate. Inactivation constants for the boronic acid-derivatized peptides (MeO-Suc-Ala-Ala-Pro (D or L) boro-Phe-OH, a gift from Dr. Charles Kettner, E. I. Dupont de Nemours, Wilmington, Del.) were calculated using MeO-Suc-Ala-Ala-Pro-Phe-Sbzl as the substrate at 125 and 250 μM. Five different concentrations of each inhibitor were used per substrate concentration. The data were plotted according to Dixon and kinactivation values were extrapolated from the graph (Dixon, 1953. Biochem. J. 55, 170-171).

Cercarial Proteinase = Cercarial Proteinase (Schistosoma mansoni, UniProt P12546); assay: biochemical
Protocol: as §1, with “Kitz and Wilson's methods of analysis were used for calculation of Ki, k3, and k3 /Ki (Kitz R. & Wilson, I.” left out
Therefore a boronic acid derivatized peptide analogous to the chloromethyl ketone derivatized Ala-Ala-Pro-Phe sequence was also tested. […] Stereoisomers of the same peptide were also evaluated.

[2] = system: cercariae of Schistosoma mansoni (Puerto Rican strain); assay type: cell-based; conditions: 50 micromolar
Protocol: A modification of the assay developed by Clegg and Smithers (Clegg & Smithers, 1972. Int. J. Parasitol. 2, 79-98.) was used. Two Plexiglass chambers were manufactured which could be screwed together to hold a 25×25 mm section of skin at the interface of the two chambers. Human skin was obtained from autopsy (6-12 hours following death) or from amputation specimens received at the Department of Surgical Pathology, UCSF. The chamber below the skin was filled with tissue culture medium (DME H16) prewarmed to 37° C. After the skin was clamped, the upper chamber was filled with water containing 9000 cercariae of Schistosoma mansoni (Puerto Rican strain). Cercariae will follow a thermal gradient, and they are stimulated by the lipid on the surface of skin to invade (Stirewalt, 1974. Adv. Parasitol. 12, 115-180). After one hour exposure to cercariae the skin was removed, fixed in 10% phosphate buffered formalin for 24 h, and sectioned at 2 mm intervals. Following dehydration and routine paraffin embedding, 5μ sections were cut by microtome and stained with hemotoxylin and eosin. The number of cercariae which had invaded epidermis or dermis was counted in each section. Percent inhibition of invasion was calculated as [formula] All assays were done in triplicate and standard deviation of the mean calculated. […]

cercarial protease [3] = molecular target: T1, cercarial protease; assay type: biochemical; conditions: for Km: substrate hydrolysis, 100 mM glycine/NaOH, 2 mM CaCl2, pH 9.0, Lineweaver-Burk; for substrate hydrolysis activity (in words): very low activity = absorbance change less than 0.001 O.D. in 40 min with 1.5 mM substrate
Protocol: Serine protease was isolated from the acetabular glands of cercariae as described previously in McKerrow et al., 1985. J. Biol. Chem. 260, 3703-3707. All tetrapeptide thioester (Sbzl) substrates with the exception of MeO-Suc-Ala-Ala-Pro-Lys-Sbzl (a gift from Dr. James C. Powers, School of Chemistry, Georgia Institute of Technology, Atlanta, Ga.) were purchased from Enzyme System Products (Dublin, Calif.). Stock solutions (25 mM) of all substrates were prepared in dimethyl sulfoxide (DMSO). Rates of hydrolysis of substrates were measured by adding 1-10 μl of substrate and 25 μl of 1 mM 4,4'-dithiodipyridine in DMSO to buffer (100 mM glycine/NaOH, 2 mM CaCl2, pH 9.0) to give a total volume of 1.0 ml. A 10 μl enzyme sample was added to start the reaction. The increase in the absorbance at 325 nm was followed on a Gilford spectrophotometer. An ε value of 19,800 was used for the thiopyridine production.
Assays of paranitroanilide (pNA) and 7-amino-4-methyl coumarin (AMC) derivatized peptides were carried out as described in McKerrow et al., 1985. J. Biol. Chem. 260, 3703-3707. MeO-Suc-Ala-Ala-Pro-Phe-pNA was from Vega Biochemicals, Tucson, Az. MeO-Suc-Ala-Ala-Pro-Leu-pNA was a gift of Dr. David Agard, Department of Biochemistry, UCSF. All other pNA substrates were a gift of Dr. Corey Largman, Veterans Administration Hospital, Martinez, Calif. All AMC substrates were from Enzyme Systems Products, Dublin, Calif.
For each peptide substrate, the substrate concentration range was varied over ten-fold. The kinetic constants were determined from the initial rates of product formation using a least squares analysis according to method of Lineweaver-Burk (Lineweaver, H. & Burk, D. 1934. J. Am. Chem. Soc. 56, 658).

Sequence of Cercarial Proteinase (P12546 28-264): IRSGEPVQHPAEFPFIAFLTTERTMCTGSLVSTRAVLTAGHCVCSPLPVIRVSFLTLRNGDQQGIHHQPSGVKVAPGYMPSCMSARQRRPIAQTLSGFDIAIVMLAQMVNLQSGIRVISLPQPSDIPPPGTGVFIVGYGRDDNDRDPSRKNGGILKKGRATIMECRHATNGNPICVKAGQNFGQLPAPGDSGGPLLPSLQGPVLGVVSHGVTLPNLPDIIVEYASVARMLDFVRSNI
T1 sequence (P12546 28-264): as above

SMILES	Ki (cercarial protease [1])	Km (cercarial protease [3])	other results
COC(=O)CCC(=O)N[C@@H](C)C(=O)N[C@@H](C)C(=O)N1CCC[C@H]1C(=O)N[C@@H](Cc1ccccc1)C(=O)CCl [MeO-Suc-Ala-Ala-Pro-Phe-CMK] (MeOSuc-AAPF-CH2Cl)	13 µM		IC50 (Cercarial Proteinase): 88 nM
COC(=O)CCC(=O)N[C@@H](C)C(=O)N[C@@H](C)C(=O)N1CCC[C@H]1C(=O)N[C@H](Cc1ccccc1)B(O)O [MeO-Suc-Ala-Ala-Pro-(D)boro-Phe-OH]			cercariae inhibited from invading skin [2]: less than 20%
COC(=O)CCC(=O)N[C@@H](C)C(=O)N[C@@H](C)C(=O)N1CCC[C@H]1C(=O)N[C@@H](Cc1ccccc1)C(=O)SCc1ccccc1 [MeO-Suc-Ala-Ala-Pro-Phe-Sbzl] (MeOSuc-AAPF-SBn)		96 µM	
COC(=O)CCC(=O)N[C@@H](Cc1ccccc1)C(=O)N[C@@H](C)C(=O)N1CCC[C@H]1C(=O)N[C@@H](Cc1ccccc1)C(=O)CCl [MeO-Suc-Phe-Ala-Pro-Phe-CMK] (MeOSuc-FAPF-CH2Cl)	1 µM		
COC(=O)CCC(=O)N[C@@H](C)C(=O)N[C@@H](C)C(=O)N1CCC[C@H]1C(=O)N[C@@H](CC(C)C)C(=O)Nc1ccc([N+](=O)[O-])cc1 [MeO-Suc-Ala-Ala-Pro-Leu-pNA] (MeOSuc-AAPL-pNA)		118 µM	
COC(=O)CCC(=O)N[C@@H](C)C(=O)N[C@@H](C)C(=O)N1CCC[C@H]1C(=O)N[C@@H](Cc1ccccc1)C(=O)Nc1ccc([N+](=O)[O-])cc1 [MeO-Suc-Ala-Ala-Pro-Phe-pNA] (MeOSuc-AAPF-pNA)		119 µM	
COC(=O)CCC(=O)N[C@@H](C)C(=O)N[C@@H](C)C(=O)N1CCC[C@H]1C(=O)N[C@@H](Cc1c[nH]c2ccccc12)C(=O)CCl [MeO-Suc-Ala-Ala-Pro-Trp-CMK] (MeOSuc-AAPW-CH2Cl)	20 µM		
COC(=O)CCC(=O)N[C@@H](C)C(=O)N[C@@H](C)C(=O)N1CCC[C@H]1C(=O)N[C@@H](CCSC)C(=O)Nc1ccc([N+](=O)[O-])cc1 [MeO-Suc-Ala-Ala-Pro-Met-pNA] (MeOSuc-AAPM-pNA)		300 µM	
COC(=O)CCC(=O)N[C@@H](C)C(=O)N[C@@H](C)C(=O)N1CCC[C@H]1C(=O)N[C@H](C(=O)Nc1ccc2c(C)cc(=O)oc2c1)C(C)C [MeO-Suc-Ala-Ala-Pro-Val-AMC] (MeOSuc-AAPV-{AMC})			substrate hydrolysis activity (in words) (cercarial protease [3]): no activity
COC(=O)CCC(=O)N[C@@H](C)C(=O)N[C@@H](C)C(=O)N1CCC[C@H]1C(=O)N[C@@H](CC(C)C)C(=O)SCc1ccccc1 [MeO-Suc-Ala-Ala-Pro-Leu-Sbzl] (MeOSuc-AAPL-SBn)		464 µM	
COC(=O)CCC(=O)N[C@@H](Cc1c[nH]c2ccccc12)C(=O)N[C@@H](C)C(=O)N1CCC[C@H]1C(=O)N[C@@H](Cc1ccccc1)C(=O)SCc1ccccc1 [MeO-Suc-Trp-Ala-Pro-Phe-Sbzl] (MeOSuc-WAPF-SBn)			substrate hydrolysis activity (in words) (cercarial protease [3]): no activity
COC(=O)CCC(=O)N[C@@H](C)C(=O)N[C@@H](C)C(=O)N1CCC[C@H]1C(=O)N[C@@H](Cc1ccccc1)B(O)O [MeO-Suc-Ala-Ala-Pro-(L)boro-Phe-OH]			cercariae inhibited from invading skin [2]: 50%
COC(=O)CCC(=O)N[C@@H](Cc1c[nH]c2ccccc12)C(=O)N[C@@H](C)C(=O)N1CCC[C@H]1C(=O)N[C@@H](Cc1ccccc1)C(=O)CCl [MeO-Suc-Trp-Ala-Pro-Phe-CMK] (MeOSuc-WAPF-CH2Cl)	12 µM		
COC(=O)CCC(=O)N[C@@H](C)C(=O)N[C@@H](C)C(=O)N1CCC[C@H]1C(=O)N[C@@H](C)C(=O)SCc1ccccc1 [MeO-Suc-Ala-Ala-Pro-Ala-Sbzl] (MeOSuc-AAPA-SBn)			substrate hydrolysis activity (in words) (cercarial protease [3]): no activity
COC(=O)CCC(=O)N[C@@H](C)C(=O)N[C@@H](C)C(=O)N1CCC[C@H]1C(=O)N[C@@H](CC(C)C)C(=O)CCl [MeO-Suc-Ala-Ala-Pro-Leu-CMK] (MeOSuc-AAPL-CH2Cl)	12 µM		IC50 (Cercarial Proteinase): 36 nM
COC(=O)CCC(=O)N[C@@H](C)C(=O)N[C@@H](C)C(=O)N1CCC[C@H]1C(=O)N[C@@H](CCCCN)C(=O)SCc1ccccc1 [MeO-Suc-Ala-Ala-Pro-Lys-Sbzl] (MeOSuc-AAPK-SBn)			substrate hydrolysis activity (in words) (cercarial protease [3]): no activity
CCCC[C@H](NC(=O)[C@@H]1CCCN1C(=O)[C@H](C)NC(=O)[C@H](C)NC(=O)CCC(=O)OC)C(=O)Nc1ccc([N+](=O)[O-])cc1 [MeO-Suc-Ala-Ala-Pro-Nle-pNA] (MeOSuc-AAP[Nle]-pNA)		300 µM	
COC(=O)CCC(=O)N[C@@H](C)C(=O)N[C@@H](C)C(=O)N1CCC[C@H]1C(=O)N[C@@H](C)C(=O)Nc1ccc2c(C)cc(=O)oc2c1 [MeO-Suc-Ala-Ala-Pro-Ala-AMC] (MeOSuc-AAPA-{AMC})			substrate hydrolysis activity (in words) (cercarial protease [3]): no activity
COC(=O)CCC(=O)N[C@@H](Cc1c[nH]c2ccccc12)C(=O)N[C@@H](C)C(=O)N1CCC[C@H]1C(=O)N[C@@H](CC(C)C)C(=O)CCl [MeO-Suc-Trp-Ala-Pro-Leu-CMK] (MeOSuc-WAPL-CH2Cl)	2 µM		
COC(=O)CCC(=O)N[C@@H](C)C(=O)N[C@@H](CCCCN)C(=O)N1CCC[C@H]1C(=O)N[C@@H](Cc1ccccc1)C(=O)CCl [MeO-Suc-Ala-Lys-Pro-Phe-CMK]	7 µM		
COC(=O)CCC(=O)N[C@@H](Cc1ccccc1)C(=O)N[C@@H](C)C(=O)N1CCC[C@H]1C(=O)N[C@@H](Cc1ccccc1)C(=O)SCc1ccccc1 [MeO-Suc-Phe-Ala-Pro-Phe-Sbzl] (MeOSuc-FAPF-SBn)		244 µM	
COC(=O)CCC(=O)N[C@@H](C)C(=O)N[C@@H](C)C(=O)N1CCC[C@H]1C(=O)N[C@@H](C)C(=O)CCl [MeO-Suc-Ala-Ala-Pro-Ala-CMK] (MeOSuc-AAPA-CH2Cl)			IC50 (Cercarial Proteinase): > 100000 nM
